These results are taken from US4814340A, “1,4-diaryl alkane derivatives having insecticidal and acaricidal activity” (priority 1982, dated 1989).

In general, mortality refers to the percentage killed.

The subject of one data set is common cutworm (third-instar larvae). As to the kind of experiment: Test 1 (Effect on Common Cutworm). Format: in vivo. The conditions noted are these: Spodoptera litura, 48 h. Here is the method: (§1) Compounds (a) through (g) described below were tested as comparative compounds in the same manner as the compounds of the present invention. All the tests were doubly carried out. Namely, each result was expressed by an average value of two data.
The emulsifiable concentrate of the test compound, prepared according to the method described in Formulation Example 1, was diluted with water to a specified concentration. Sweet potato leaves were sufficiently immersed in the dilution. The sweet potato leaves were dried and placed in a plastic cup having a diameter of 10 cm, and 10 third-instar larvae of common cutworm were set free in each cup. 48 hours after, the numbers of killed and living larvae were counted and the mortality was calculated.
Take `CNC(=O)ON=C(C)SC` [(d), Methomyl, reference compound]: the mortality at 20 ppm stood at 80% and the mortality at 100 ppm is 100%.

The same data set, now with this note: Spodoptera litura; 20 ppm; 48 hours; third-instar larvae; read-out: Mortality (%).
Turning to `CCOc1ccc(C(C)(C)CCCc2ccc(F)c(Oc3ccccc3)c2)cc1` [Compound 3, 1-(3-phenoxy-4-fluorophenyl)-4-(4-ethoxyphenyl)-4-methylpentane], the mortality at 20 ppm was found to be 100%.

For `CC(C)(CCCc1cccc(Oc2ccccc2)c1)c1ccc(OC(F)F)cc1` [Compound 32], the mortality at 20 ppm stood at 100%.

For `CC(C)(CCCc1cccc(Oc2ccccc2)c1)c1ccc(OC(F)=CCl)cc1` [Compound 37], the mortality at 20 ppm is 80%.

In the case of `C#CCOc1ccc(C(C)(C)CCCc2cccc(Oc3ccccc3)c2)cc1` [Compound 45], the mortality at 20 ppm came to 80%.

For the compound `CC(C)(CCCc1cccc(Oc2ccccc2)c1)c1ccc(Oc2ccccc2)cc1` [Compound 46], the mortality at 20 ppm came out at 85%.

For the compound `CC(C)(CCCc1cccc(Oc2ccccc2)c1)c1ccc(C#N)cc1` [Compound 58, 1-(3-Phenoxyphenyl)-4-(4-cyanophenyl)-4-methylpentane], the mortality at 20 ppm was found to be 80%.

In the case of `CC(C)(CCCc1cccc(Oc2ccccc2)c1)c1ccc(C=C(Cl)Cl)cc1` [Compound 63], the mortality at 20 ppm is 70%.

The same data set, now with this note: Spodoptera litura; 100 ppm; 48 hours; third-instar larvae; read-out: Mortality (%).
Consider `CCOc1ccc(C(C)(C)CCCc2ccc(F)c(Oc3ccccc3)c2)cc1` [Compound 3, 1-(3-phenoxy-4-fluorophenyl)-4-(4-ethoxyphenyl)-4-methylpentane], for which the mortality at 100 ppm came out at 100%.

Consider `CC(C)(CCCc1cccc(Oc2ccccc2)c1)c1ccc(OC(F)F)cc1` [Compound 32], for which the mortality at 100 ppm is 100%.

Regarding `CC(C)(CCCc1cccc(Oc2ccccc2)c1)c1ccc(OC(F)=CCl)cc1` [Compound 37], the mortality at 100 ppm was found to be 100%.

As for `C#CCOc1ccc(C(C)(C)CCCc2cccc(Oc3ccccc3)c2)cc1` [Compound 45], the mortality at 100 ppm came to 100%.

Take `CC(C)(CCCc1cccc(Oc2ccccc2)c1)c1ccc(Oc2ccccc2)cc1` [Compound 46]: the mortality at 100 ppm amounted to 100%.

Take `CC(C)(CCCc1cccc(Oc2ccccc2)c1)c1ccc(C#N)cc1` [Compound 58, 1-(3-Phenoxyphenyl)-4-(4-cyanophenyl)-4-methylpentane]: the mortality at 100 ppm is 100%.

Take `CC(C)(CCCc1cccc(Oc2ccccc2)c1)c1ccc(C=C(Cl)Cl)cc1` [Compound 63]: the mortality at 100 ppm is 100%.

Another data set concerns green rice leafhopper (female adults). As to the kind of experiment: Test 2 (Effect on Green Rice Leafhopper). Format: in vivo. The settings on record: Nephotettix cincticeps; 20 ppm; 48 hours; female adults; read-out: Mortality (%). Here is the method: as §1
Four or five seedlings of paddy rice with three leaves were bundled, and thereon the same dilution of the emulsifiable concentrate as used in Test 1 was sprayed in an amount of 3 ml. The bundle was dried and covered with a metal net cylinder, and 10 female adults of green rice leafhopper were set free in the cylinder. 48 hours after, the number of killed adults was counted.
Consider `CC(C)(CCCc1cccc(Oc2ccccc2)c1)c1cccc(C(F)(F)F)c1` [Compound 2, 1-(3-phenoxyphenyl)-4-(3-trifluoromethylphenyl)-4-methylpentane], for which the mortality at 20 ppm turned out to be 80%.

For the compound `CCOc1ccc(C(C)(C)CCCc2ccc(F)c(Oc3ccccc3)c2)cc1` [Compound 3, 1-(3-phenoxy-4-fluorophenyl)-4-(4-ethoxyphenyl)-4-methylpentane], the mortality at 20 ppm was 100%.

In the case of `COc1ccc(C(C)(C)CCCc2cccc(Oc3ccccc3)c2)cc1` [Compound 5, 1-(3-phenoxyphenyl)-4-(4-methoxyphenyl)-4-methylpentane], the mortality at 20 ppm was found to be 100%.

Regarding `CCC(C)(CCCc1cccc(Oc2ccccc2)c1)c1ccc(Cl)cc1` (centres unmarked) [Compound 7, 1-(3-phenoxyphenyl)-4-(4-chlorophenyl)-4-methylhexane], the mortality at 20 ppm came to 65%.

Turning to `CCOc1ccc(C(C)(C)CCCc2cccc(C(=O)c3ccccc3)c2)cc1Br` [Compound 13, 1-(3-benzoylphenyl)-4-(3-bromo-4-ethoxyphenyl)-4-methylpentane], the mortality at 20 ppm worked out at 40%.

For the compound `CCOc1ccc(C(C)(C)CCCc2cccc(Cc3ccccc3)c2)cc1` [Compound 14, 1-(3-benzylphenyl)-4-(4-ethoxyphenyl)-4-methylpentane], the mortality at 20 ppm came out at 50%.

On to `CCOc1ccc(C(C)(C)CCC(C#N)c2cccc(Oc3ccccc3)c2)cc1` (centres unmarked) [Compound 15, 1-(3-Phenoxyphenyl)-1-cyano-4-(4-ethoxyphenyl)-4-methylpentane], for which the mortality at 20 ppm amounted to 70%.

In the case of `CC(C)(CCCc1cccc(Oc2ccccc2)c1)c1ccc2ccccc2c1` [Compound 18, 1-(3-Phenoxyphenyl)-4-(2-naphthyl)-4-methylpentane], the mortality at 20 ppm worked out at 100%.

`CC(C)(CCCc1cccc(Oc2ccccc2)c1)c1cccc(Cl)c1` [Compound 21]: the mortality at 20 ppm came out at 100%.

Regarding `COc1ccc(C(C)(C)CCCc2cccc(Oc3ccccc3)c2)cc1OC` [Compound 22], the mortality at 20 ppm was found to be 50%.

As for `CCC(CCCc1cccc(Oc2ccccc2)c1)c1ccc(Cl)cc1` (centres unmarked) [Compound 23], the mortality at 20 ppm turned out to be 75%.

With `CC(C)(CCCc1cccc(Oc2ccccc2)c1)c1ccc(OC(F)F)cc1` [Compound 32], the mortality at 20 ppm came out at 100%.

As to `C#CCOc1ccc(C(C)(C)CCCc2cccc(Oc3ccccc3)c2)cc1` [Compound 45], the mortality at 20 ppm was found to be 80%.

As for `CC(C)(CCCc1cccc(Oc2ccccc2)c1)c1ccc(Oc2ccccc2)cc1` [Compound 46], the mortality at 20 ppm was 100%.

Take `CC(C)(CCCc1cccc(Oc2ccccc2)c1)c1ccc(C#N)cc1` [Compound 58, 1-(3-Phenoxyphenyl)-4-(4-cyanophenyl)-4-methylpentane]: the mortality at 20 ppm amounted to 100%.

For `CC(C)(CCCc1cccc(Oc2ccccc2)c1)c1ccc(C=C(Cl)Cl)cc1` [Compound 63], the mortality at 20 ppm was found to be 100%.

Still in this data set, the particulars now being: Nephotettix cincticeps; 100 ppm; 48 hours; female adults; read-out: Mortality (%).
For the compound `CC(C)(CCCc1cccc(Oc2ccccc2)c1)c1cccc(C(F)(F)F)c1` [Compound 2, 1-(3-phenoxyphenyl)-4-(3-trifluoromethylphenyl)-4-methylpentane], the mortality at 100 ppm was determined as 100%.

Take `CCOc1ccc(C(C)(C)CCCc2ccc(F)c(Oc3ccccc3)c2)cc1` [Compound 3, 1-(3-phenoxy-4-fluorophenyl)-4-(4-ethoxyphenyl)-4-methylpentane]: the mortality at 100 ppm was 100%.

In the case of `COc1ccc(C(C)(C)CCCc2cccc(Oc3ccccc3)c2)cc1` [Compound 5, 1-(3-phenoxyphenyl)-4-(4-methoxyphenyl)-4-methylpentane], the mortality at 100 ppm was found to be 100%.

Consider `CCC(C)(CCCc1cccc(Oc2ccccc2)c1)c1ccc(Cl)cc1` (centres unmarked) [Compound 7, 1-(3-phenoxyphenyl)-4-(4-chlorophenyl)-4-methylhexane], for which the mortality at 100 ppm is 100%.

Turning to `CCOc1ccc(C(C)(C)CCCc2cccc(C(=O)c3ccccc3)c2)cc1Br` [Compound 13, 1-(3-benzoylphenyl)-4-(3-bromo-4-ethoxyphenyl)-4-methylpentane], the mortality at 100 ppm was determined as 100%.

In the case of `CCOc1ccc(C(C)(C)CCCc2cccc(Cc3ccccc3)c2)cc1` [Compound 14, 1-(3-benzylphenyl)-4-(4-ethoxyphenyl)-4-methylpentane], the mortality at 100 ppm is 90%.

In the case of `CCOc1ccc(C(C)(C)CCC(C#N)c2cccc(Oc3ccccc3)c2)cc1` (centres unmarked) [Compound 15, 1-(3-Phenoxyphenyl)-1-cyano-4-(4-ethoxyphenyl)-4-methylpentane], the mortality at 100 ppm is 95%.

Regarding `CC(C)(CCCc1cccc(Oc2ccccc2)c1)c1ccc2ccccc2c1` [Compound 18, 1-(3-Phenoxyphenyl)-4-(2-naphthyl)-4-methylpentane], the mortality at 100 ppm was 100%.

Turning to `CC(C)(CCCc1cccc(Oc2ccccc2)c1)c1cccc(Cl)c1` [Compound 21], the mortality at 100 ppm was 100%.

In the case of `COc1ccc(C(C)(C)CCCc2cccc(Oc3ccccc3)c2)cc1OC` [Compound 22], the mortality at 100 ppm is 95%.

Consider `CCC(CCCc1cccc(Oc2ccccc2)c1)c1ccc(Cl)cc1` (centres unmarked) [Compound 23], for which the mortality at 100 ppm amounted to 100%.

For `CC(C)(CCCc1cccc(Oc2ccccc2)c1)c1ccc(OC(F)F)cc1` [Compound 32], the mortality at 100 ppm is 100%.

`C#CCOc1ccc(C(C)(C)CCCc2cccc(Oc3ccccc3)c2)cc1` [Compound 45]: the mortality at 100 ppm was 100%.

As to `CC(C)(CCCc1cccc(Oc2ccccc2)c1)c1ccc(Oc2ccccc2)cc1` [Compound 46], the mortality at 100 ppm is 100%.

`CC(C)(CCCc1cccc(Oc2ccccc2)c1)c1ccc(C#N)cc1` [Compound 58, 1-(3-Phenoxyphenyl)-4-(4-cyanophenyl)-4-methylpentane]: the mortality at 100 ppm was found to be 100%.

As to `CC(C)(CCCc1cccc(Oc2ccccc2)c1)c1ccc(C=C(Cl)Cl)cc1` [Compound 63], the mortality at 100 ppm came to 100%.

For another data set, the system named is yearling carps. Kind of data set: Test 5 (Fish Toxicity). Format: in vivo, carp. The settings on record: 0.1 ppm in water. Here is the method: as §1
A water tank having a width of 60 cm, a length of 30 cm and a height of 40 cm was filled with water, and 10 yearling carps having a body length of about 5 cm were set free in the tank and adapted to the environment in the tank. An acetone solution of a test compound was applied into water so as to become a concentration of 1 or 0.1 ppm in water by adding said acetone solution at a rate of one part by volume per 100 parts by volume of water. 48 hours after, the number of killed and living carps was counted and the effect of a test compound on carps was examined.
On to `COc1ccc(C(C)(C)CCCc2cccc(Oc3ccccc3)c2)cc1` [Compound 5, 1-(3-phenoxyphenyl)-4-(4-methoxyphenyl)-4-methylpentane], for which the “Mortality(%) 48 Hours After” value stood at 0%.

In the case of `CC(C)(CCCc1cccc(Oc2ccccc2)c1)c1ccc2ccccc2c1` [Compound 18, 1-(3-Phenoxyphenyl)-4-(2-naphthyl)-4-methylpentane], the “Mortality(%) 48 Hours After” value is 0%.

Consider `CC(C)(CCCc1cccc(Oc2ccccc2)c1)c1cccc(Cl)c1` [Compound 21], for which the “Mortality(%) 48 Hours After” value is 0%.

`CCC(CCCc1cccc(Oc2ccccc2)c1)c1ccc(Cl)cc1` (centres unmarked) [Compound 23]: the “Mortality(%) 48 Hours After” value turned out to be 0%.

The same data set, now with this note: 1 ppm in water.
Regarding `COc1ccc(C(C)(C)CCCc2cccc(Oc3ccccc3)c2)cc1` [Compound 5, 1-(3-phenoxyphenyl)-4-(4-methoxyphenyl)-4-methylpentane], the “Mortality(%) 48 Hours After” value was found to be 0%.

Take `CC(C)(CCCc1cccc(Oc2ccccc2)c1)c1ccc2ccccc2c1` [Compound 18, 1-(3-Phenoxyphenyl)-4-(2-naphthyl)-4-methylpentane]: the “Mortality(%) 48 Hours After” value was 0%.

Take `CC(C)(CCCc1cccc(Oc2ccccc2)c1)c1cccc(Cl)c1` [Compound 21]: the “Mortality(%) 48 Hours After” value is 0%.

For the compound `CCC(CCCc1cccc(Oc2ccccc2)c1)c1ccc(Cl)cc1` (centres unmarked) [Compound 23], the “Mortality(%) 48 Hours After” value was determined as 0%.
